The numbers were not newly measured in patent US5672583A, “Carboxy-peptidyl derivatives as antidegenerative active agents” (Merck & Co., Inc., priority 1995, dated 1997), which cites them from elsewhere.

As usually defined, the IC50 is the concentration at which inhibition is half-maximal.

Data set [1] concerns the target T1, human rheumatoid synovial collagenase (Homo sapiens, UniProt P03956).
T1 sequence (P03956 100-469): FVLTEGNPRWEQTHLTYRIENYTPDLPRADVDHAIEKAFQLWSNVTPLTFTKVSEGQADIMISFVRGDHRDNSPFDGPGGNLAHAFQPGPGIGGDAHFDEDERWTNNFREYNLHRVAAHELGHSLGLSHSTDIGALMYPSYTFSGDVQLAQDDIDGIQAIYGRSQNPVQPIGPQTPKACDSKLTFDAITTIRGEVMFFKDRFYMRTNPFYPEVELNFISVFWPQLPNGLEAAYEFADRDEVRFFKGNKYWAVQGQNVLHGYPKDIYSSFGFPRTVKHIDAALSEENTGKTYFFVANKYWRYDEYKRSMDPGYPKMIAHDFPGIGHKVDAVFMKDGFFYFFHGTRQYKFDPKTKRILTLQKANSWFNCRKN
The following applies: Delaisse et al., Biochem. Biophys. Res. Commun. 133, 483-90 (1985).

The target of data set [2] is rabbit bone proteoglycanase (Oryctolagus cuniculus, UniProt P28863). The following applies: Delaisse et al., Biochem. Biophys. Res. Commun. 133, 483-90 (1985).
Chain of rabbit bone proteoglycanase (P28863 101-478): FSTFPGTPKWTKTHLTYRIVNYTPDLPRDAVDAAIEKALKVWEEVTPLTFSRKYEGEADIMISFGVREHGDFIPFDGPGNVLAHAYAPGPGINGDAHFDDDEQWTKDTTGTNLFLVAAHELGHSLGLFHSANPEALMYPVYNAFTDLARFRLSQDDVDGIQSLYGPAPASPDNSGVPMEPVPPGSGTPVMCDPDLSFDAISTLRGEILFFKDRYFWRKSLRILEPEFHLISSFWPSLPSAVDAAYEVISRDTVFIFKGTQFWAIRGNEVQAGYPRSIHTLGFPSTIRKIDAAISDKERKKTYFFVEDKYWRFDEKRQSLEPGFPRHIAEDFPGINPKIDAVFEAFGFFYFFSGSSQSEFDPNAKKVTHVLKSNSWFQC

`CNC(=O)[C@H](Cc1ccc(OC)cc1)NC(=O)[C@H](CC(C)C)NC(CCNC(=O)OCc1ccccc1)C(=O)O` (stereo partly drawn) [N-[3-(benzyloxycarbonyl)amino-1-carboxy-n-propyl]-L-leucyl-O-methyl-L-tyrosine, N-methylamide]: the results for the IC50 in data set [1] and in data set [2] were 800 nM and 500 nM, respectively.
